Measurements as given in US20240342119A1, “COMPOSITION FOR TREATING HY[…] AND KELOIDS […] THI[…] AS ACTIVE INGREDIENT” (CEL[…]., priority 2021, published 2024).

System: hypertrophic scars in rabbit ears
Test: rabbit ear hypertrophic scar model
Format: in vivo, New Zealand white rabbits
Details: 10% compound; for epidermal thickness of hypertrophic scar / scar elevation index (SEI) / collagen density (ratio of blue-stained area to total area): 0.5 mL applied daily for 14 days, compared to control and solvent-treated group; for epidermal thickness of hypertrophic scar: H&E, FIG. 9; for scar elevation index (SEI): FIG. 10; for collagen density (ratio of blue-stained area to total area): FIG. 11; for visual evaluation score of hypertrophic scar (dermatoscope, score 0-3 of Table 1): 0.5 mL applied daily, day 14, compared to control and solvent-treated group, FIG. 8
Text: Eight female New Zealand white rabbits (2.6 to 3 kg) were anesthetized, and wounds were formed by removing the epidermis, dermis, and perichondrium of the ear skin of the rabbits using an 8 mm biopsy punch. Three wounds were formed in an ear area of each rabbit. The rabbit's surgical site was sterilized, and the formation of hypertrophic scars was induced through natural healing for 3 weeks.
After 3-week natural healing, the complete epithelialization and hypertrophic scar formation in scar areas were confirmed, and treatment was started for each test group. The test groups were classified into a normal group (normal tissue), a control (untreated scar/hypertrophic scar), test group 1 (solve application), test group 2 (CBM-N1 10%), test group 3 (CBM-N3 10%), test group 4 (CBM-N 10%), and test group 5 (CBM-N 10%).
Each test group was treated by applying 0.5 mL of drug daily for 2 weeks (14 days), and then a tissue autopsy was performed. The biopsied tissue was stored in a 10% formalin solution to form a tissue slide. The effectiveness of hypertrophic scar treatment was confirmed through dermatoscopy and histological evaluation.
The skin tissue areas of the control and test groups were observed using a dermatoscope on the start day and end day (Day 14 of treatment) of treatment, and depending on the degree of hypertrophic scar formation, scores were given for visual evaluation as shown in Table 1 below.
A paraffin block of the fixed ear tissue of a rabbit was prepared, and sliced to a thickness of 3 μm, thereby preparing a tissue slide. Following hydration, staining was performed using hematoxylin and eosin solutions. The stained tissue slides were photographed using a 200× microscope, and epithelial thicknesses were measured using ZEISS ZEN Microscope Software.
The fixed ear tissue of a rabbit was stained with a hematoxylin or eosin solution in the same manner as in the epidermal thickness analysis method, and the stained tissue slide was photographed at 50× magnification. Using ZEISS ZEN Microscope Software, the length from the epidermis to the cartilage was measured for the scar area and normal area, and the scar evaluation index (SEI) was calculated from the results. Here, the SEI is the value calculated by dividing ‘the length from the epidermis to the cartilage at the thickest point in the scar area’ by ‘the length from the epidermis to the cartilage in the normal skin area.’
A paraffin block of the fixed ear tissue of a rabbit was prepared, and sliced to a thickness of 3 μm, thereby preparing a tissue slide. Following hydration, staining was performed using Biebrich Scarlet-Acid Fuchsin solution for 5 minutes, and washing was performed and then staining was performed again with phosphotungstic acid/phosphomolybdic acid for 5 minutes.
Subsequently, staining was performed with aniline blue and an acetic acid solution, and the stained tissue slides were photographed at 400× magnification. In the photographs that were taken, the ratio of the blue-stained area, that is, the area occupied by collagen, to the total area was analyzed using Image J (The National Institutes of Health, USA).

SMILES | epidermal thickness of hypertrophic scar | scar elevation index (SEI) | collagen density (ratio of blue-stained area to total area) | visual evaluation score of hypertrophic scar (dermatoscope, score 0-3 of Table 1)
O=C(CSC(c1ccccc1)c1ccccc1)Nc1ccccc1 [CBM-N3, 2-(benzhydrylthio)-N-phenylacetamide] | thin epidermal thicknesses | lower SEI values | lower collagen densities | much lower
O=C(C[S+]([O-])C(c1ccccc1)c1ccccc1)NCC1CCCO1 (stereo not shown) [CBM-N5, 2-(benzhydrylsulfinyl)-N-[(tetrahydrofuran-2-yl)methyl]acetamide] | thin epidermal thicknesses | lower SEI values | lower collagen densities | much lower
NC(=O)C[S+]([O-])C(c1ccc(F)cc1)c1ccc(F)cc1 (stereo not shown) [CBM-N9, 2-[bis(4-fluorophenyl)methanesulfinyl]acetamide] | thin epidermal thicknesses | lower SEI values | lower collagen densities | much lower
NC(=O)C[S+]([O-])C(c1ccccc1)c1ccccc1 (stereo not shown) [CBM-N1, 2-(benzhydrylsulfinyl)acetamide, reference compound] | thin epidermal thicknesses | lower SEI values | lower collagen densities | much lower
